According to US20080027042A1, “Novel Aminopyridine Derivatives Having Aurora a Selective Inhibitory Action” (priority 2004, published 2008):
Where a name gives a salt, the structure may show the parent alone.

Experiments:
Aurora B = molecular target: T1, Aurora B (Homo sapiens, UniProt Q96GD4); test: Aurora B inhibitory action (33P-ATP kinase assay, Kemptide substrate); type: biochemical; conditions: 100 μM ATP, 30° C., 20 minutes
T1 construct: histidine tag (N); made in house; host or cells: Escherichia coli BL21-CodonPlus(DE3)-RIL
T1 sequence (Q96GD4 whole entry): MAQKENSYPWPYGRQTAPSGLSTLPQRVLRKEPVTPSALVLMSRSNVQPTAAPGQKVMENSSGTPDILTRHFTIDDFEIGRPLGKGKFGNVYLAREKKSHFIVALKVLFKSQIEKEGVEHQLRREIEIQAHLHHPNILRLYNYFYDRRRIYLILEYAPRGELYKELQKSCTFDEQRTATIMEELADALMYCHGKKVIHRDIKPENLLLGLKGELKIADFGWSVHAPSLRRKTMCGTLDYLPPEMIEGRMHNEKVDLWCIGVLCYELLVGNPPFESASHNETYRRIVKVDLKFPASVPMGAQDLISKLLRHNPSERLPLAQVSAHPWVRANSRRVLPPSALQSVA
Description: Aurora B Inhibitory Action
(1) Purification of Aurora B
(§1) cDNA of Aurora B having histidine tag fused at the amino terminal was integrated into an expression vector, which was then highly expressed in Escherichia coli BL21-CodonPlus(DE3)-RIL cells. The Escherichia coli cells were recovered and solubilized, and then the histidine-tagged […] protein was adsorbed onto a nickel chelate column and eluted from the column with imidazole. The active fraction was desalted with a desalting column to give a pure enzyme.
(2) Measurement of Activity of Aurora B
For measurement of the activity of Aurora B, the substrate used was Kemptide (Lys-Arg-Arg-Ala-Ser-Lys-Gly) (SEQ.ED.NO.: 1), a synthetic peptide purchased from Sigma-Aldrich, Inc. [Certificate of analysis (Upstate, Inc.)].
Reaction was conducted by a partial modification of the method of activity measurement for Aurora A. The amount of the reaction liquid was 21.1 μL, and the composition of the reaction buffer (R2 buffer) was 50 mM Tris-hydrochloride buffer (pH 7.4)/15 mM magnesium acetate/0.2 mM ethylenediamine-N,N,N′,N′-tetraacetate (EDTA). To this, purified Aurora B, 100 μM of a substrate peptide, 100 μM of unlabeled adenosine triphosphate (ATP) and 1 μCi of [γ-^33P] labeled ATP (2,500 Ci/mmole or more) were added, and the mixture was reacted at 30° C. for 20 minutes. Then, 10 μL of 350 mM phosphate buffer was added to the reaction system to stop the reaction. The substrate peptide was adsorbed on a P81 paper filter 96-well plate and then washed with 130 mM phosphate buffer for several times. The radiation activity of the peptide was measured with a liquid scintillation counter. The [γ-^33P] labeled ATP was purchased from Amersham Biosciences Co., Ltd.
(§2) The compound to be tested was added to the reaction system such that a dilution series of the compound in dimethylsulfoxide was first prepared, and 1.1 μL of this solution was added. A control was provided by adding 1.1 μL of DMSO to the reaction system.

Aurora A = molecular target: T2, Aurora A (Homo sapiens, UniProt O14965); test: Aurora A inhibitory action (33P-ATP kinase assay, Kemptide substrate); type: biochemical; conditions: 20 μM ATP, 30° C., 20 minutes
T2 construct: histidine tag (N); made in house; host or cells: Escherichia coli BL21-CodonPlus(DE3)-RIL
T2 sequence (O14965 1-403): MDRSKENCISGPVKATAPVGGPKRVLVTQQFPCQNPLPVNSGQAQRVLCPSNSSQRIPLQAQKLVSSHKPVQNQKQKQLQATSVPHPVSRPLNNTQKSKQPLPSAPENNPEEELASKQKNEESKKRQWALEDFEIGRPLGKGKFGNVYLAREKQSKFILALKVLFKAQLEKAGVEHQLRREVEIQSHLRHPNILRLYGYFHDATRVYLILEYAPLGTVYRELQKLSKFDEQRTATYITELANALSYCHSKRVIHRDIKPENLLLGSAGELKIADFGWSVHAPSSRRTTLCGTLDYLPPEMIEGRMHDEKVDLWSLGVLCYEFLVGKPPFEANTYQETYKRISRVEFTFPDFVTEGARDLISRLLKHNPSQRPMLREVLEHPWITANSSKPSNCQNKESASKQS
Description: Aurora A Inhibitory Action
(1) Purification of Aurora A
as §1, with “A” for “B”, “BL2 1-CodonPlus(DE3)-RIL” for “BL21-CodonPlus(DE3)-RIL”
(2) Measurement of Activity of Aurora A
For measurement of the activity of Aurora A, the substrate used was Kemptide (Lys-Arg-Arg-Ala-Ser-Lys-Gly) (SEQ.ID.NO.: 1), a synthetic peptide purchased from Sigma-Aldrich, Inc. [Certificate of analysis (Upstate, Inc.)].
Reaction was conducted by a partial modification of a method by Upstate, Inc. [Kinase Profiler™ Assay Protocols]. The amount of the reaction liquid was 21.1 μL, and the composition of the reaction buffer (R2 buffer) was 50 mM Tris-hydrochloride buffer (pH 7.4)/15 mM magnesium acetate/0.2 mM ethylenediamine-N,N,N′,N′-tetraacetate (EDTA). To this, purified Aurora A, 100 μM of a substrate peptide, 20 μM of unlabeled adenosine triphosphate (ATP) and 0.5 μCi of [γ-^33P] labeled ATP (2,500 Ci/mmole or more) were added, and the mixture was reacted at 30° C. for 20 minutes. Then, 10 μL of 350 mM phosphate buffer was added to the reaction system to stop the reaction. The substrate peptide was adsorbed on a P81 paper filter 96-well plate and then washed with 130 mM phosphate buffer for several times. The radiation activity of the peptide was measured with a liquid scintillation counter. The [γ-^33P] labeled ATP was purchased from Amersham Biosciences Co., Ltd.
as §2

IC50 (Aurora B)	IC50 (Aurora A)	SMILES
450 nM	1.1 nM	Cc1cc(Nc2cccc(CN3CCN(C(=O)c4cccc(Cl)c4Cl)CC3)n2)n[nH]1 [Example 26, 6-((4-(2,3-dichlorobenzoyl)piperazin-1-yl)methyl)-N-(5-methyl-1H-pyrazol-3-yl)pyridin-2-amine trifluoroacetate]
1700 nM	3.3 nM	Cc1cc(Nc2cccc(CN3C[C@@H]4C[C@H]3CN4C(=O)c3cccc(Cl)c3F)n2)n[nH]1 [Example 27, 6-(((1S,4S)-5-(3-chloro-2-fluorobenzoyl)-2,5-diazabicyclo[2.2.1]hept-2-yl)methyl)-N-(5-methyl-1H-pyrazol-3-yl)pyridin-2-amine]
760 nM	37 nM	O=C(c1ccccc1)N1CCN(Cc2cccc(Nc3cc(C4CC4)[nH]n3)n2)CC1 [Example 31, 6-((4-benzoylpiperazin-1-yl)methyl)-N-(5-cyclopropyl-1H-pyrazol-3-yl)pyridin-2-amine]
4800 nM	3.7 nM	O=C(c1cccc(Cl)c1F)N1CCN(Cc2cccc(Nc3ncns3)n2)CC1 [Example 32, 6-((4-(3-chloro-2-fluorobenzoyl)piperazin-1-yl)methyl)-N-1,2,4-thiadiazol-5-ylpyridin-2-amine]
3000 nM	50 nM	C[C@@H]1CN(Cc2cccc(Nc3ncns3)n2)CCN1C(=O)c1ccccc1 [Example 33, 6-(((3R)-4-benzoyl-3-methylpiperazin-1-yl)methyl)-N-1,2,4-thiadiazol-5-ylpyridin-2-amine trifluoroacetate]
3400 nM	31 nM	O=C(c1ccccc1)N1CCCN(Cc2cccc(Nc3ncns3)n2)CC1 [Example 35, 6-((4-benzoyl-1,4-diazepan-1-yl)methyl)-N-1,2,4-thiadiazol-5-ylpyridin-2-amine]
8800 nM	4.9 nM	O=C(c1cccc(C(F)(F)F)c1)N1CCN(Cc2cccc(Nc3ncns3)n2)CC1 [Example 37, 6-((4-(3-(trifluoromethyl)benzoyl)piperazin-1-yl)methyl)-N-1,2,4-thiadiazol-5-ylpyridin-2-amine]
9500 nM	9.1 nM	O=C(c1cccc(Br)c1)N1CCN(Cc2cccc(Nc3ncns3)n2)CC1 [Example 38, 6-((4-(3-bromobenzoyl)piperazin-1-yl)methyl)-N-1,2,4-thiadiazol-5-ylpyridin-2-amine]
5000 nM	2.9 nM	O=C(c1cccc(C(F)F)c1F)N1CCN(Cc2cccc(Nc3ncns3)n2)CC1 [Example 41, 6-((4-(2-fluoro-3-(difluoromethyl)benzoyl)piperazin-1-yl)methyl)-N-1,2,4-thiadiazol-5-ylpyridin-2-amine trifluoroacetate]
530 nM	1 nM	Cc1cnc(Nc2cccc(CN3CCN(C(=O)c4cccc(Cl)c4F)CC3)n2)s1 [Example 42, 6-((4-(3-chloro-2-fluorobenzoyl)piperazin-1-yl)methyl)-N-(5-methyl-thiazol-2-yl)pyridin-2-amine trifluoroacetate]
460 nM	1.1 nM	N#Cc1cnc(Nc2cccc(CN3CCN(C(=O)c4cccc(Cl)c4F)CC3)n2)s1 [Example 43]
4800 nM	2.5 nM	O=C(c1cccc(Cl)c1Cl)N1CCN(Cc2cncc(Nc3cc[nH]n3)n2)CC1 [Example 45, 6-((4-(2,3-dichlorobenzoyl)piperazin-1-yl)methyl)-N-1H-pyrazol-3-ylpyrazin-2-amine]
2200 nM	5.5 nM	O=C(c1cccc(C(F)(F)F)c1F)N1C[C@@H]2C[C@H]1CN2Cc1cncc(Nc2cc[nH]n2)n1 [Example 47, 6-(((lS,4S)-5-(2-fluoro-3-(trifluoromethyl)benzoyl)-2,5-diazabicyclo[2.2.1]hept-2-yl)methyl)-N-1H-pyrazol-3-ylpyrazin-2-amine]
2900 nM	2.8 nM	O=C(c1cccc(C(F)(F)F)c1F)N1C[C@H]2C[C@@H]1CN2Cc1cncc(Nc2cc[nH]n2)n1 [Example 48, 6-(((1R,4R)-5-(2-fluoro-3-(trifluoromethyl)benzoyl)-2,5-diazabicyclo[2.2.1]hept-2-yl)methyl)-N-1H-pyrazol-3-ylpyrazin-2-amine]
4400 nM	1.4 nM	O=C(c1cccc(Br)c1F)N1CCN(Cc2cncc(Nc3cc[nH]n3)n2)CC1 [Example 49, 6-((4-(3-bromo-2-fluorobenzoyl)piperazin-1-yl)methyl)-N-1H-pyrazol-3-ylpyrazin-2-amine trifluoroacetate]
930 nM	0.98 nM	O=C(c1cccc(C(F)(F)F)c1Cl)N1CCN(Cc2cncc(Nc3cc[nH]n3)n2)CC1 [Example 51, 6-((4-(2-chloro-3-(trifluoromethyl)benzoyl)piperazin-1-yl)methyl)-N-1H-pyrazol-3-ylpyrazin-2-amine trifluoroacetate]
7400 nM	20 nM	O=C(c1cccc(C(F)(F)F)c1F)N1CCN(Cc2cncc(Nc3cc[nH]n3)n2)CC(O)C1 (stereo not shown) [Example 55, 6-((4-(2-fluoro-3-(trifluoromethyl)benzoyl)-6-hydroxy-1,4-diazepan-1-yl)methyl)-N-1H-pyrazol-3-ylpyrazin-2-arnine]
28000 nM	15 nM	O=C(c1cccc(C(F)(F)F)c1F)N1CCN(Cc2cncc(Nc3ncns3)n2)CC1 [Example 57, 6-((4-(2-fluoro-(3-trifluoromethyl)benzoyl)piperazin-1-yl)methyl)-N-1,2,4-thiadiazol-5-ylpyrazin-2-amine]
530 nM	17 nM	O=C(c1ccoc1)N1CCN(Cc2cccc(Nc3ncc(Cl)s3)n2)CC1 [Example 61, 6-((4-(3-furoyl)piperazin-1-yl)methyl)-N-(5-chlorothiazol-2-yl)pyridin-2-amine]
570 nM	1.3 nM	O=C(c1cccc(Cl)c1F)N1CCCN(Cc2cccc(Nc3nccs3)n2)CC1 [Example 63, 6-((4-(3-chloro-2-fluorobenzoyl)-1,4-diazepan-1-yl)methyl)-N-thiazol-2-ylpyridin-2-amine]
2500 nM	110 nM	O=C(c1cnccn1)N1CCN(Cc2cccc(Nc3ncc(Cl)s3)n2)CC1 [Example 64, 6-((4-(pyrazin-2-ylcarbonyl)piperazin-1-yl)methyl)-N-(5-chlorothiazol-2-yl)pyridin-2-amine]
160 nM	2.4 nM	O=C(c1ccsc1)N1CCN(Cc2cccc(Nc3ncc(Cl)s3)n2)CC1 [Example 65, 6-((4-(3-thienylcarbonyl)piperazin-1-yl)methyl)-N-(5-chlorothiazol-2-yl)pyridin-2-amine]
320 nM	17 nM	O=C(c1nccs1)N1CCN(Cc2cccc(Nc3ncc(Cl)s3)n2)CC1 [Example 67, 6-((4-(thiazol-2-ylcarbonyl)piperazin-1-yl)methyl)-N-(5-chlorothiazol-2-yl)pyridin-2-amine]
